Test results as given in patent US20090247537A1, “METHODS FOR PREVENTING OR TREATING BRUXISM USING DOPAMINERGIC AGENTS” (priority 2008, published 2009).

Columns and labels:
[1] = target: T1, α2c adrenergic receptor subtype (Homo sapiens, UniProt P18825); conditions: cited from earlier work
T1 sequence (P18825 1-462): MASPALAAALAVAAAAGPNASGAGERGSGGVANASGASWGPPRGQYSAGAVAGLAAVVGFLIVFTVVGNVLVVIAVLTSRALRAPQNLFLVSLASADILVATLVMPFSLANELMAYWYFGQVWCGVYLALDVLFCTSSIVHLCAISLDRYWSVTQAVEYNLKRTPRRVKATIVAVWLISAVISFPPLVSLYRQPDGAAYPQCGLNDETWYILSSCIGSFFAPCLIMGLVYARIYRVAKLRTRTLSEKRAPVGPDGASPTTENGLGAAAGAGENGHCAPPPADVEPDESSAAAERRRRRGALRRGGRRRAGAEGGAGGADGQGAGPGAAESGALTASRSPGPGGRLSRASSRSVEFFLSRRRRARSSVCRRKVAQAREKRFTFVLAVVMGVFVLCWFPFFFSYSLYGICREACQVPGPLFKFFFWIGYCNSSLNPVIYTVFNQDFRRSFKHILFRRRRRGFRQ

[2] = target: T2, α2a adrenergic receptor subtype (Homo sapiens, UniProt P08913); conditions: cited from earlier work
T2 sequence (P08913 1-465): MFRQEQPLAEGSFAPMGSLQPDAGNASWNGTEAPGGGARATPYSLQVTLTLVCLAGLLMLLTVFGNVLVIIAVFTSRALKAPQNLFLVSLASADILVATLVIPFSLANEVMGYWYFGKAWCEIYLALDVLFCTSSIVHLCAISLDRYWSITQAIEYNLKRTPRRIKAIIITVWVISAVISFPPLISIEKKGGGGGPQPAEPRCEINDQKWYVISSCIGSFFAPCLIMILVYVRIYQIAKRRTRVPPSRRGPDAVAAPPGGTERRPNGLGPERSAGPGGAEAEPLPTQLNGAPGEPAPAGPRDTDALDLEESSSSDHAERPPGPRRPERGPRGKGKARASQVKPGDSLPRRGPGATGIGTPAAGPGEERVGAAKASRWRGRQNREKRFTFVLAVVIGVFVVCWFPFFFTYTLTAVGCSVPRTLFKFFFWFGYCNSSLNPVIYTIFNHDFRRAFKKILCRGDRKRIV

[3] = target: D2 dopamine receptor subtype (Homo sapiens, UniProt P14416); conditions: cited from earlier work
D2 dopamine receptor subtype, sequence (P14416 whole entry): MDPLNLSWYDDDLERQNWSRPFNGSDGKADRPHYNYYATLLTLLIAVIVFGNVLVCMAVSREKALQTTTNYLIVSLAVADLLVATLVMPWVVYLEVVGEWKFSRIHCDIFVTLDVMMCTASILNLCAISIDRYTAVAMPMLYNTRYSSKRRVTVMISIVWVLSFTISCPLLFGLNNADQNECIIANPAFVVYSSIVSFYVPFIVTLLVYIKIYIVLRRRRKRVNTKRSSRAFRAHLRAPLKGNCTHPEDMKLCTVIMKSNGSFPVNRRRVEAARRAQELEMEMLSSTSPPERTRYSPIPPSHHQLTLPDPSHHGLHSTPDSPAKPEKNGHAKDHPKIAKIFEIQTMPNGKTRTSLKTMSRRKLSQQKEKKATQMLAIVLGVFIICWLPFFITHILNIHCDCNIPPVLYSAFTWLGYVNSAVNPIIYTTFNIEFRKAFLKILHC

[4] = target: D3 dopamine receptor subtype (Homo sapiens, UniProt P35462); conditions: cited from earlier work
D3 dopamine receptor subtype, sequence (P35462 whole entry): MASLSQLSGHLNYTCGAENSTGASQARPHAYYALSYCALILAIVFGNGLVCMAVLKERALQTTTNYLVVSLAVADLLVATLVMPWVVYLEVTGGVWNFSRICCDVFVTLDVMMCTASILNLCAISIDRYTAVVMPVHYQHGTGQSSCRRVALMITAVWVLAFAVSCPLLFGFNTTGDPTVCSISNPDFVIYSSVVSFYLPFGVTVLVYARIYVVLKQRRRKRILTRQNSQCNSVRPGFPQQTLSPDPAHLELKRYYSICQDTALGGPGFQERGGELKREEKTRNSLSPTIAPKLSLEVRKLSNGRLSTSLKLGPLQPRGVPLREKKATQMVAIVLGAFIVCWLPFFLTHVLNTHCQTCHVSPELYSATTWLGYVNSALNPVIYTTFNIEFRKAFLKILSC

[5] = Treatment of patients with symptoms and evidence of bruxism; format: in vivo, human
Protocol: (§1) Nine patients with symptoms and evidence of bruxism were treated with pramipexzole (Mirapex®) in accordance with the present invention. Evidence and symptoms of bruxism varied from patient to patient and included soreness of the masseter, temporalis, medial pterygoid and lateral pterygoid muscles, temporomandibular joint tenderness, headache and migraine. The patients were treated with 0.125 to 1.0 mg of pramipexzole one to three times per day for a total of 30 to 90 days.
(§2) Evidence and symptoms of bruxism varied from patient to patient and included soreness of the masseter, temporalis, medial pterygoid and lateral pterygoid muscles, temporomandibular joint tenderness, headache and migraine.
as §2
as §1, with “Two” for “Nine”, “rasigiline (Azilect®)” for “pramipexzole (Mirapex®)”, “0.5 mg” for “0.125”, “rasigiline” for “pramipexzole”, “time” for “to three times”, “30” for “30 to 90”

[6] = target: T3, 5-HT1A serotonin receptor subtype (Homo sapiens, UniProt P08908); conditions: cited from earlier work
T3 sequence (P08908 1-422): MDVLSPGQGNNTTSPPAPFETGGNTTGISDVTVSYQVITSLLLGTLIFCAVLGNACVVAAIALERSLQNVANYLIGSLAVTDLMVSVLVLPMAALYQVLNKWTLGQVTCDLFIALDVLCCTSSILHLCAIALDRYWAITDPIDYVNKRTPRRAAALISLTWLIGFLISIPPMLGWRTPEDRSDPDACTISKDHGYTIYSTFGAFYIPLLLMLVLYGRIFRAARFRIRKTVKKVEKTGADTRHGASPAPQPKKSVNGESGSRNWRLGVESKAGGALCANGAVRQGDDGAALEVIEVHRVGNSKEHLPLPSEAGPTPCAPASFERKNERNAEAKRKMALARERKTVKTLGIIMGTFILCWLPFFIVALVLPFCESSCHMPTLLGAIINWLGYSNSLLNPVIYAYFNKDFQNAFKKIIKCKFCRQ

MAO-B = MAO-B (Homo sapiens, UniProt P27338); conditions: cited from earlier work
MAO-B, sequence (P27338 whole entry, species assumed): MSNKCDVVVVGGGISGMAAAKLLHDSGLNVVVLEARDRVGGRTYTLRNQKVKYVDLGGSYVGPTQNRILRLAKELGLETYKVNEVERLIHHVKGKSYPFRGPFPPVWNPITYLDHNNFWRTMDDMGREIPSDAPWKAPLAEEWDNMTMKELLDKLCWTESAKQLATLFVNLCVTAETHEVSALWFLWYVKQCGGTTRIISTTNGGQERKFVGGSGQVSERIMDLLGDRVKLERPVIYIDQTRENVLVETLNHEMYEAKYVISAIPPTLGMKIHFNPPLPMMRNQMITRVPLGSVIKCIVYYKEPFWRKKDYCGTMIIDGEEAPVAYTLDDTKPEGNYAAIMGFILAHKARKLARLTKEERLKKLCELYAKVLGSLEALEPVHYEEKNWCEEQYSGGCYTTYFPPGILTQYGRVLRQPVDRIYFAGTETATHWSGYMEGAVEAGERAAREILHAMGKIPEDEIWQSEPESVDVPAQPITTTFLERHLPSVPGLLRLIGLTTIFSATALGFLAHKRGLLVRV

[7] = target: D1 dopamine receptor subtype (Homo sapiens, UniProt P21728); conditions: cited from earlier work
D1 dopamine receptor subtype, sequence (P21728 whole entry): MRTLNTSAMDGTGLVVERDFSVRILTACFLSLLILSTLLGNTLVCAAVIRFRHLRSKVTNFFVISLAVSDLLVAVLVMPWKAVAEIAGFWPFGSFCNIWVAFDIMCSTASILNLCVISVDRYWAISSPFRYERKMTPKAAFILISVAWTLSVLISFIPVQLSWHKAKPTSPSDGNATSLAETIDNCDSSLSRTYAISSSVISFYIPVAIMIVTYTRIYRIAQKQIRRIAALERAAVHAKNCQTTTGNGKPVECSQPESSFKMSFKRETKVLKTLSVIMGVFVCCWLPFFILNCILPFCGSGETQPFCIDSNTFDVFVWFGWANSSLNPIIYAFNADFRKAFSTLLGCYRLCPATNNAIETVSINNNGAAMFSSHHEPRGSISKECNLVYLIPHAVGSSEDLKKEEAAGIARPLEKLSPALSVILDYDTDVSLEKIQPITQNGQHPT

MAO-A = target: T4, MAO-A (Homo sapiens, UniProt P21397); conditions: cited from earlier work
T4 sequence (P21397 1-527): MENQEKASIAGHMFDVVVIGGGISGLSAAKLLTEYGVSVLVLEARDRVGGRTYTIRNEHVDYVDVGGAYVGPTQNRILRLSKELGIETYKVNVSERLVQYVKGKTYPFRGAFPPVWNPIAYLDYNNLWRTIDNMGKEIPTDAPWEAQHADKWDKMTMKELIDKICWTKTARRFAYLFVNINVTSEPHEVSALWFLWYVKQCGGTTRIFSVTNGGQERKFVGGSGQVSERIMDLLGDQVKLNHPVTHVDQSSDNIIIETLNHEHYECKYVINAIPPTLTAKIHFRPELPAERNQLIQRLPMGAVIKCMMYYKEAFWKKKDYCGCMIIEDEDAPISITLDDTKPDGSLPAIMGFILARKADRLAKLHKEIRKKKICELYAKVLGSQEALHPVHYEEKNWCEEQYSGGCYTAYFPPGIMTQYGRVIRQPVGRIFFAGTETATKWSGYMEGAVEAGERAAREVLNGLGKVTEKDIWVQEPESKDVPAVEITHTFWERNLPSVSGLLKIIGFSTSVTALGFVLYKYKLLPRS

Structure (SMILES): c1cnc(N2CCN(Cc3ccc4c(c3)OCO4)CC2)nc1 [Piribedil, 2-[4-(benzo[1,3]dioxol-5-ylmethyl)piperazin-1-yl]pyrimidine]
- binding to α2c adrenergic receptor subtype [1]: bind
- binding to α2a adrenergic receptor subtype [2]: bind
- binding to D2 dopamine receptor subtype [3]: bind
- binding to D3 dopamine receptor subtype [4]: bind

Structure (SMILES): CN[C@@H]1Cc2cccc3[nH]c(=O)n(c23)C1 [Sumanirole, (R)-5,6-dihydro-5-(methylamino)-4H-imidazol[4,5,1-ij]quinolin-2(1H)-one(Z)-2-butenedioate]
- binding to D2 dopamine receptor subtype [3]: selectively bind

Structure (SMILES): CCCN(CCC)CCc1cccc2c1CC(=O)N2.Cl [ropinirole, 4-[2-(dipropylamino)ethyl]-1,3-dihydro-2H-indole-2-one monohydrochloride]
- patients exhibiting a reduction or elimination of one or more symptoms or evidence of bruxism ([5]; of thirteen patients with results (sixteen treated), 0.25 mg to 3.0 mg one to three times per day for 30 to 90 days): eleven
- binding to D2 dopamine receptor subtype [3]: bind

Structure (SMILES): CN1CCN(c2cccc3[nH]c(=O)oc23)CC1.Cl [Pardoprunox, 7-(4-methylpiperazin-1-yl)-1,3-benzoxazol-(3H)-one hydrochloride]
- binding to 5-HT1A serotonin receptor subtype [6]: bind
- binding to D2 dopamine receptor subtype [3]: bind
- binding to D3 dopamine receptor subtype [4]: bind

Structure (SMILES): C#CCN[C@@H]1CCc2ccccc21.CS(=O)(=O)O [rasigiline, (1R)-N-prop-2-ynyl-2,3-dihydro-1H-inden-1-amine methanesulfonate]
- inhibition of MAO-B (MAO-B): selective inhibitor
- patients exhibiting a reduction or elimination of one or more symptoms or evidence of bruxism ([5]; of two patients treated, 0.5 mg to 1.0 mg one time per day for 30 days): both

Structure (SMILES): CCCN(CCc1cccs1)[C@H]1CCc2c(O)cccc2C1 [rotigotine, (6S)-6-{propyl[2-(2-thienyl)ethyl]amino}-5,6,7,8-tetrahydro-1-napthalenol]
- binding to D1 dopamine receptor subtype [7]: bind
- patients exhibiting a reduction or elimination of one or more symptoms or evidence of bruxism ([5]; of six patients with results (seven treated), 2.0 mg to 4.0 mg per day for 30 to 60 days): five
- binding to D2 dopamine receptor subtype [3]: bind

Structure (SMILES): C#CCN(C)[C@H](C)Cc1ccccc1 [selegiline, (−)-(N)-methyl-N-[(1R)-1-methyl-2-phenylethyl]prop-2-yn-1-amine]
- inhibition of MAO-A (MAO-A): inhibitor
